Source: patent US10286057B2, “Cyclic HIV-1 Env V3 glycopeptide immunogens” (DUKE UNIVERSITY, priority 2013, dated 2019)
Ends that are not written are not given here. * marks the point of attachment. Man3GlcNAc2 = CC(=O)N[C@@H]1[C@@H](O)[C@H](O[C@@H]2O[C@H](CO)[C@@H](O[C@@H]3O[C@H](CO[C@H]4O[C@H](CO)[C@@H](O)[C@H](O)[C@@H]4O)[C@@H](O)[C@H](O[C@H]4O[C@H](CO)[C@@H](O)[C@H](O)[C@@H]4O)[C@@H]3O)[C@H](O)[C@H]2NC(C)=O)[C@@H](CO)O[C@H]1*

Columns and labels:
BnAb CH01 [1] = test: SPR (Biacore) binding of V1V2 antigens to BnAb CH01; conditions: FIG. 1C, antigen 200 μg/ml
Protocol: (§1) FIGS. 1A-1E. Initial evaluation of synthetic V1V2 glycopeptide constructs. […] Surface plasmon reasonance (SPR) analysis of the interaction of V1V2 Man5GlcNAc2 (green), Man3GlcNAc2 (red), GlcNAc2 (blue), or aglycone (magenta) antigens with BnAbs PG9 (FIG. 1B), CH01 (FIG. 1C), or their respective umutated common ancestor (UCA) antibodies, PG9 UCA (FIG. 1D), and CH01-04 UCA (FIG. 1E). Concentration of antigens was 200 μg/ml for FIGS. […], and 100 μg/ml for FIGS. 1D and 1E, RU=response units
(§2) Using chemical methods (see, for example, those referenced above), a set of homogeneous V1V2 glycopeptides bearing Man3GlcNAc2, Man5GlcNAc2, and GlcNAc2 N-glycans were synthesized de novo (FIG. 1A). […] Importantly, binding by the naked “aglycone” (FIGS. 1B,C) or the solitary protein-free Man3 and Man5 oligosaccharides (data not shown) was not observed.

RV144 mAb CH58 = test: Reactivity of RV144 mAb CH58 toward V1V2 glycopeptides; assay type: binding; conditions: data not shown
Text: (§3) This is the first antigen known to bind to the PG9 UCA. […] Thus, these two V1V2 peptide-glycans have selective reactivity toward the V1V2 BnAbs, and react poorly or not at all with the CH58 mature and UCA antibodies. Therefore, these V1V2 peptide-glycan immunogens are prime candidates for selective induction of V1V2 BnAb lineages that are normally sub-dominant with infrequent UCAs.

CH58 UCA = test: Reactivity of CH58 UCA toward V1V2 glycopeptides; assay type: binding; conditions: data not shown
Text: as §3

BnAb PG9 [2] = test: SPR (Biacore) binding of V1V2 antigens to BnAb PG9; conditions: FIG. 1B, antigen 200 μg/ml
Protocol: as §1, §2

CH01-04 UCA = test: SPR binding of V1V2 antigens to CH01 UCA; conditions: FIG. 1E, antigen 100 μg/ml
Protocol: as §1, §3

PGTs 125-128 and 130 = conditions: cited from earlier work
PGT128 [3] = conditions: protein-free glycan; cited from earlier work
PG9 UCA = test: SPR binding of V1V2 antigens to PG9 UCA; conditions: FIG. 1D, antigen 100 μg/ml
Protocol: as §1, §3

BnAb CH01 [4] = conditions: from previous work; cited from earlier work
BnAb PG9 [5] = conditions: from previous work; cited from earlier work
[6] = system: V3 loop non-neutralizing mAb 19b; test: SPR binding to captured V3 loop non-neutralizing mAb 19b; conditions: FIG. 12 and FIG. 13D
Text: (§4) Both PGT128 and PGT125 are dependent on Man9 glycans on position N332 and N301 (Pejchal et al., 2011), with N332 being the primary glycan.
(§5) Binding of V3 Bnab to Man9 glycan.

V1V2 mAb PGT145 = test: Binding to V1V2 mAb PGT145; conditions: FIG. 13D
Text: (§6) FIG. 13A-D show binding of PGT mAbs to synthetic Man9GlcNAc2 glycan. Binding of V3 Bnab to Man9 glycan. […] Thus, the binding of Man9GlcnAc2 glycan was detected only for V3-glycan dependent PGT BNAbs.

PGT128 [7] = test: SPR binding to captured mAb PGT128; conditions: FIG. 13A
Text: as §4, §5

PGT125 = test: SPR binding to captured mAb PGT125; conditions: FIG. 13B
Text: as §4, §5

2G12 = test: Binding to mAb 2G12; conditions: FIG. 13C
Text: as §6
FIGS. 11-13 depict various experimental data showing that synthetic glycopeptides, such as for example the peptide of FIG. 1, can show differential binding to bnAbs vs non-neutralizing antibodies. […] Both 2G12 mAb and 2G12 UCA bound well to Man5 V1V2 dimer, indicating recognition of the glycan cluster on a V2 backbone.

Compound: Man5 construct: V1V2 glycopeptide (SEQ ID NO: 9) bearing two N-linked Man5GlcNAc2 at N160 and N156 (ITDEVRN(Man5GlcNAc2)CSFN(Man5GlcNAc2)MTTELRDKKQKVHALFYKLDIVPI)
- binding to BnAb CH01 (BnAb CH01 [1]): bind
- reactivity of mAb CH58 (RV144 mAb CH58): almost no affinity
- reactivity of CH58 UCA (CH58 UCA): almost no affinity
- binding to BnAb PG9 (BnAb PG9 [2]): bind
- affinity for CH01 UCA (CH01-04 UCA): to a lesser extent

Compound: CC(=O)N[C@@H]1[C@@H](O)[C@H](O[C@@H]2O[C@H](CO)[C@@H](O[C@H]3O[C@H](CO[C@H]4O[C@H](CO[C@H]5O[C@H](CO)[C@@H](O)[C@H](O)[C@@H]5O[C@H]5O[C@H](CO)[C@@H](O)[C@H](O)[C@@H]5O)[C@@H](O)[C@H](O[C@H]5O[C@H](CO)[C@@H](O)[C@H](O)[C@@H]5O)[C@@H]4O)[C@@H](O)[C@H](O[C@H]4O[C@H](CO)[C@@H](O)[C@H](O)[C@@H]4O[C@H]4O[C@H](CO)[C@@H](O)[C@H](O)[C@@H]4O[C@H]4O[C@H](CO)[C@@H](O)[C@H](O)[C@@H]4O)[C@@H]3O)[C@H](O)[C@H]2NC(C)=O)[C@@H](CO)O[C@H]1O [Man8, reference compound]
- binding of PGTs 125-128 and 130 on glycan arrays (PGTs 125-128 and 130): showed binding

Compound: CC(=O)N[C@H]1[C@H](O[C@H]2[C@H](O)[C@@H](NC(C)=O)C(O)O[C@@H]2CO)O[C@H](CO)[C@@H](O[C@@H]2O[C@H](CO[C@H]3O[C@H](CO)[C@@H](O)[C@H](O)[C@@H]3O)[C@@H](O)[C@H](O[C@H]3O[C@H](CO)[C@@H](O)[C@H](O)[C@@H]3O)[C@@H]2O)[C@@H]1O (stereo partly drawn) [Man3 oligosaccharide, Man3GlcNAc2]
- binding to BnAb CH01 (BnAb CH01 [1]): not observed
- binding to BnAb PG9 (BnAb PG9 [2]): not observed
- binding of PGT128 on glycan arrays (PGT128 [3]): not observed

Compound: Man3 construct: V1V2 glycopeptide (SEQ ID NO: 9, AE.CM244/A244) bearing two N-linked Man3GlcNAc2 at N160 and N156 (ITDEVRN(Man3GlcNAc2)CSFN(Man3GlcNAc2)MTTELRDKKQKVHALFYKLDIVPI)
- affinity for PG9 UCA (PG9 UCA): significant affinity
- binding to BnAb CH01 (BnAb CH01 [1]): bind
- reactivity of mAb CH58 (RV144 mAb CH58): only weak reactivity
- reactivity of CH58 UCA (CH58 UCA): only weak reactivity
- binding to BnAb PG9 (BnAb PG9 [2]): bind
- affinity for CH01 UCA (CH01-04 UCA): significant affinity

Compound: Man5GlcNAc2 [Man5 oligosaccharide]
- binding to BnAb CH01 (BnAb CH01 [1]): not observed
- binding to BnAb PG9 (BnAb PG9 [2]): not observed

Compound: aglycone: V1V2 peptide of SEQ ID NO: 9 with zero glycans (ITDEVRNCSFNMTTELRDKKQKVHALFYKLDIVPI)
- binding to CH01 (BnAb CH01 [4]): did not show binding
- binding to PG9 (BnAb PG9 [5]): did not show binding
- binding to BnAb CH01 (BnAb CH01 [1]): not observed
- binding to BnAb PG9 (BnAb PG9 [2]): not observed

Compound: CC(=O)N[C@H]1[C@H](O[C@H]2[C@H](O)[C@@H](NC(C)=O)C(O)O[C@@H]2CO)O[C@H](CO)[C@@H](O[C@@H]2O[C@H](CO[C@H]3O[C@H](CO[C@H]4O[C@H](CO)[C@@H](O)[C@H](O)[C@@H]4O[C@H]4O[C@H](CO)[C@@H](O)[C@H](O)[C@@H]4O)[C@@H](O)[C@H](O[C@H]4O[C@H](CO)[C@@H](O)[C@H](O)[C@@H]4O[C@H]4O[C@H](CO)[C@@H](O)[C@H](O)[C@@H]4O)[C@@H]3O)[C@@H](O)[C@H](O[C@H]3O[C@H](CO)[C@@H](O)[C@H](O)[C@@H]3O[C@H]3O[C@H](CO)[C@@H](O)[C@H](O)[C@@H]3O[C@H]3O[C@H](CO)[C@@H](O)[C@H](O)[C@@H]3O)[C@@H]2O)[C@@H]1O (stereo partly drawn) [Man9 glycan, Man9GlcNAc2]
- binding to non-neutralizing V3 mAb 19b [6]: no binding
- binding to V1V2 mAb PGT145 (V1V2 mAb PGT145): no binding
- affinity of PGT128 binding to free glycan (PGT128 [7]): affinities in μM
- binding of PGTs 125-128 and 130 on glycan arrays (PGTs 125-128 and 130): showed binding
- affinity of PGT125 binding to free glycan (PGT125): affinities in μM
- 2G12 binding to free glycan (2G12): only detected at the highest concentration
